From patent US6034246A, “2-arylbenzazole compounds” (Cancer Research Campaign Technology Limited, priority 1995, dated 2000)
pIC50: −log10 of the molar value. Values after ≈ are worked out from the molar mass of the structure shown. Like-named read-outs stand apart in the source and are kept apart here. One block for each compound: values may come before it.

Key:
[1] = aqueous solubility; type: physicochemical; conditions: water
[2] = estimation of toxicity in tumor-bearing nude mice (body weight, blood cells, survival); type: in vivo, mouse; conditions: for BWC (body weight change): BO
Experimental: (§1) In one typical set of experiments, four human breast carcinomas xenotransplanted into female Ncr: nu/nu (Taconic, Germantown, U.S.A.) or male Bom: NMRI-nu/nu mice (Bomholtgaard, Ry, Denmark) were used for the evaluation of antitumor activity. Mice weighing 20-25 g at the start of experiments were held under sterile conditions at 24-26° C., 50% relative humidity and 12 hours light-dark rhythm in laminar flow shelves. The animals received autoclaved food and bedding; the drinking water was filtered and acidified (pH4.0).
(§2) The following breast carcinoma cell lines were used: BO; MCF-7 (NCI, U.S.A.); MT-1 and MT-3. The tumors BO and MCF-7 are ER^+ models: the carcinomas MT-1 and MT-3 are ER^- ones. Tumors were transplanted subcutaneously (s.c.) as pieces (2×2 mm) into the left flank of 5-8 nude mice/experimental group. Drug treatment was initiated when the tumors reached a diameter of 4-5 mm. Compounds were solubized with Tween 80 (maximum 10% of final volume) and suspended in saline. Suspensions were preparted freshly for each drug administration and injected in a volume of 0.2 mL/20 g body weight employing a once-weekly schedule (x3). Tumor size was measured twice weekly with a caliper. Median tumor volume/group was related to the first treatment day and expressed as Relative Tumor Volume (RTV). For the estimation of toxicity, body weight was determined twice weekly and the mean percentage body weight change (BCC) was calculated. In one experiment blood was obtained from the retroorbital venous plexus of mice and blood cells were determined with a Coulter counter (Model T41).

[3] = tested on: breast carcinoma BO; assay: in vivo antitumor test, human breast carcinoma BO xenotransplanted in nude mice; conditions: for Relative tumor volume (T/C %) / evaluation: BO
Experimental: as §1
as §2, with “T41). […]” for “T41).”

[4] = tested on: L23/R; assay: in vitro inhibition of growth of human lung cancer cell line L23/R (Table 1); type: cell-based
From the text: (§3) Tables 1 to 4 at the end of the present description show in vitro test results obtained in various sets of experiments for the cytotoxic activity of several of the benzazole compounds concerned, including also for reference results for the compound CJM 126 and comparative results for compound DF129, when tested against a range of tumor cell lines which includes ovarian, lung and certain colon and renal cancer cells from the National Cancer Institute (USA) collection. As usual the results are expressed in terms of IS50 values (concentration or dosage required to reduce cell growth or proliferation by 50%) calculated from dose-effect curves plotted for cultures of the cells in question.
(§4) In carrying out the in vitro studies, the cytotoxicity assays may be carried out by a method corresponding substantially to the following example:
(§5) Cells were maintained in a continuous logarithmic culture in Dublecco's medium supplemented with 10% fetal calf serum and penicillin (100 IU/ml) and streptomycin ([…]). The cells were mildly trypsinized for passage and for use in assays. On day zero, 100 μl of trypsinized tumor cells (1×10^4 /ml) were plated in the wells of 96-well flat-bottom microtiter plates. The plates were incubated for 2 days at 37° C. and 5% CO2 in air to allow the cells to adhere and resume exponential growth prior to the addition of drugs.
(§6) On day two 50 μl of the highest drug concentration was added to the wells of column 12 and from there serially diluted 3-fold to column 1 by serial transfer of 50 μl using an 8-channel micropipette. The final volume of column 1 was adjusted to 100 μl. No additions were made to the wells of rows A and B, which served as controls. The plates were further incubated for 5 days at 37° C. and 5% CO2 in air. Each compound was tested in duplicate.
(§7) On day 7 the test was terminated by the addition of 100 μl saline containing 0.002% w/v propidium iodide (Sigma), 0.3% drawing ink (Staedtler "Marsmatic 745"--Trade Mark) and 0.5% Triton X-100. The plates were kept at 4° C. overnight before reading on an inverted microscope equipped with an automated scanning stage. Fluorescence intensity was measured in arbitrary units by a photomultiplier. An HP-87 computer controlled the movement of the stage and also collected and processed the data from the multiplier.
(§8) For each compound tested a dose-response curve was obtained and the IC50 value (the drug concentration at 50% inhibition of cell growth) was calculated.

[5] = tested on: LX4; assay: in vitro inhibition of growth of human lung cancer cell line LX4 (Table 1); type: cell-based
From the text: as §3, §4, §5, §6, §7, §8

[6] = tested on: MOR/P; assay: in vitro inhibition of growth of human lung cancer cell line MOR/P (Table 1); type: cell-based; conditions: MOR/P (parental line)
From the text: as §3, §4, §5, §6, §7, §8

[7] = tested on: human breast cancer cell lines; conditions: words, prior PCT compound; cited from earlier work
[8] = tested on: MOR/R; assay: in vitro inhibition of growth of human lung cancer cell line MOR/R (Table 1); type: cell-based; conditions: MOR/R (multidrug resistant line)
From the text: as §3, §4, §5, §6, §7, §8

[9] = tested on: H69/P; assay: in vitro inhibition of growth of human lung cancer cell line H69/P (Table 1); type: cell-based
From the text: as §3, §4, §5, §6, §7, §8

[10] = tested on: L23/P; assay: in vitro inhibition of growth of human lung cancer cell line L23/P (Table 1); type: cell-based
From the text: as §3, §4, §5, §6, §7, §8

[11] = tested on: lung cancer cell lines; assay: in vitro inhibition of lung cancer cell lines; type: cell-based, human; conditions: words, Table 1
From the text: as §3
(§9) In carrying out the in vitro studies, the cytotoxicity assays may be carried out by a method corresponding substantially to the following example: […]
as §7, with “An HP-87 computer controlled the movement of the stage and also collected and processed the data from the multiplier.” left out

[12] = tested on: A2780-cisR; assay: in vitro activity against human ovarian cell line A2780-cisR (Table 2); type: cell-based; conditions: A2780-cisR (platinum-resistant)
From the text: (§10) As usual the results are expressed in terms of IS50 values (concentration or dosage required to reduce cell growth or proliferation by 50%) calculated from dose-effect curves plotted for cultures of the cells in question.
as §4, §5, §6
(§11) The plates were kept at 4° C. overnight before reading on an inverted microscope equipped with an automated scanning stage. Fluorescence intensity was measured in arbitrary units by a photomultiplier. An HP-87 computer controlled the movement of the stage and also collected and processed the data from the multiplier.

[13] = tested on: CH1-cisR; assay: in vitro activity against human ovarian cell line CH1-cisR (Table 2); type: cell-based
From the text: as §10, §4, §5, §6, §11

[14] = tested on: ER-tumors MT-1 and MT-3; conditions: words, background statement; cited from earlier work
[15] = tested on: CH1; assay: in vitro activity against human ovarian cell line CH1 (Table 2); type: cell-based
From the text: as §10, §4, §5, §6, §11

[16] = tested on: A2780; assay: in vitro activity against human ovarian cell line A2780 (Table 2); type: cell-based; conditions: A2780 (parental line)
From the text: as §10, §4, §5, §6, §11

[17] = tested on: ovarian cancer cell lines; assay: in vitro inhibition of ovarian cancer cell lines; type: cell-based, human; conditions: words, Table 2
From the text: as §3, §9
as §7, with “An HP-87 computer controlled the movement of the stage and also collected and processed the data from the multiplier.” left out

[18] = tested on: MOR/CPR; assay: in vitro inhibition of growth of human lung cancer cell line MOR/CPR (Table 1); type: cell-based; conditions: Homo sapiens; MOR/CPR (cisplatin resistant line)
From the text: as §3, §4, §5, §6, §7, §8

[19] = tested on: MDA 468; assay: in vitro inhibitory activity against human breast tumour cell line MDA 468 (Table 4); type: cell-based; conditions: initial seeding density 2.5 × 10^2 cells/well
From the text: as §3, §4, §5, §6, §7, §8
(§12) *Initial seeding density 2.5 × 10^2 cells/well

[20] = tested on: L88; assay: in vitro inhibition of growth of human lung cancer cell line L88 (Table 1); type: cell-based
From the text: as §3, §4, §5
as §6, with “The plates were further incubated for 5 days at 37° C. and 5% CO2 in air. Each compound was tested in duplicate.” left out
as §7, with “An HP-87 computer controlled the movement of the stage and also collected and processed the data from the multiplier.” left out

[21] = tested on: MCF-7wt; assay: in vitro inhibitory activity against human breast tumour cell line MCF-7wt (Table 4); type: cell-based; conditions: initial seeding density 2.5 × 10^2 cells/well
From the text: as §3, §4, §5, §6, §7, §8, §12

[22] = tested on: human breast cancer cell lines; assay: in vitro inhibition of human breast cancer cell lines; type: cell-based; conditions: words, Table 4
From the text: as §3, §4, §5, §6, §7, §8

[23] = tested on: MCF-7B; assay: in vitro inhibitory activity against human breast tumour cell line MCF-7B (Table 4); type: cell-based; conditions: initial seeding density 2.5 × 10^2 cells/well
From the text: as §3, §4, §5
as §6, with “The plates were further incubated for 5 days at 37° C. and 5% CO2 in air. Each compound was tested in duplicate.” left out
as §7, with “An HP-87 computer controlled the movement of the stage and also collected and processed the data from the multiplier.” left out

[24] = qd 27, 34, 41, 20 mg/Kg/inj. i.p.
[25] = qd 27, 34, 41, 200 mg/Kg/inj. i.p. (Table 5)
[26] = qd 27, 34, 41, 1 mg/Kg/inj. i.p.
[27] = qd 27, 34, 41, 10 mg/Kg/inj. i.p.
[28] = qd 27, 34, 41, 100 mg/Kg/inj. i.p.

solubility [1]: ~10 mg/mL
Compound: O=S(=O)([O-])Nc1ccc(-c2nc3ccccc3s2)cc1.[Na+]

Compound: Nc1cccc(-c2nc3ccccc3s2)c1 [2-(3-Aminophenyl)-benzothiazole]
BWC (body weight change) ([2]; qd 27, 34, 41, 2 mg/Kg/inj. i.p.): 2%
BWC (body weight change) [2, 24]: -3%
BWC (body weight change) [2, 25]: -6%
Relative tumor volume (T/C %) ([3]; qd 27, 34, 41, 2 mg/Kg/inj. i.p., not marked significant): 78%
evaluation [3, 24]: + (T/C % = 36-50%)
Relative tumor volume (T/C %) ([3]; qd 27, 34, 41, 20 mg/Kg/inj. i.p., * significant versus controls (p < 0.05)): 48%
evaluation [3, 25]: ++ (T/C = 21-35%)
Relative tumor volume (T/C %) ([3]; qd 27, 34, 41, 200 mg/Kg/inj. i.p. (Table 5), * significant versus controls (p < 0.05)): 32%
inhibitory effects against the breast carcinoma BO ([3]; words): elicited inhibitory effects

pIC50 [4]: < 5.00
pIC50 [5]: < 5.00
solubility [1]: 0.0038 mg/mL (≈ 16.8 µM)
pIC50 [8]: < 5.00
pIC50 [9]: < 5.00
pIC50 [10]: < 5.00
Compound: Nc1ccc(-c2nc3ccccc3s2)cc1 [CJM126, 2-(4'-Aminophenyl)benzothiazole]
BWC (body weight change) [2, 26]: -5%
BWC (body weight change) [2, 27]: -4%
BWC (body weight change) [2, 28]: -7%
influence on body weight, dose dependence ([2]; words): relatively independent of dose
pIC50 [6]: < 5.00
specific inhibitory activity in respect of certain human breast cancer cell lines [7]: remarkably high specific inhibitory activity
evaluation [3, 26]: + (T/C % = 36-50%)
Relative tumor volume (T/C %) ([3]; qd 27, 34, 41, 1 mg/Kg/inj. i.p., * significant versus controls (p < 0.05)): 41%
evaluation [3, 27]: (+) (T/C % ≥ 51%)
Relative tumor volume (T/C %) ([3]; qd 27, 34, 41, 10 mg/Kg/inj. i.p., * significant versus controls (p < 0.05)): 52%
evaluation [3, 28]: (+) (T/C % ≥ 51%)
Relative tumor volume (T/C %) ([3]; qd 27, 34, 41, 100 mg/Kg/inj. i.p., * significant versus controls (p < 0.05)): 52%
influence on tumor growth, dose dependence ([3]; words): relatively independent of dose
inhibitory effects against the breast carcinoma BO ([3]; words): elicited inhibitory effects
activity against lung cancer cell lines [11]: not very sensitive

Compound: N.N.[Cl][Pt][Cl] [Cisplatin]
pIC50 [12]: 5.28
pIC50 [13]: 6.15
responsiveness of MT-1 and MT-3 tumors to drug [14]: only modestly sensitive
pIC50 [15]: 7.00
pIC50 [16]: 6.48

pIC50 [4]: 5.82
pIC50 [18]: 5.00
pIC50 [5]: 5.52
pIC50 ([12]; Homo sapiens, A2780cisR): 5.80
pIC50 ([13]; Homo sapiens, CH1cisR): 5.59
pIC50 ([15]; Homo sapiens): 5.80
pIC50 [8]: 5.22
pIC50 [20]: 5.22
pIC50 [9]: 5.52
pIC50 [10]: 5.82
Compound: O=C(CCl)Nc1ccc(-c2nc3ccccc3s2)cc1 [DF180, 2-(4'-Chloroacetamidophenyl)benzothiazole]
activity against two cisplatin resistant cell lines compared with the parental line [17]: substantially equiactive
activity in respect of the ovarian cancer cell lines [17]: most active by far
pIC50 [19]: 7.40
pIC50 [6]: 5.22
pIC50 [21]: 8.40
pIC50 ([16]; Homo sapiens): 5.90
inhibitory activity in respect of breast cancer cell lines [22]: useful degree of inhibitory activity
pIC50 [23]: 6.30

Compound: Nc1ccc(-c2nc3ccccc3s2)cc1Br [DF209, 2-(4'-amino-3'-bromophenyl)benzothiazole]
pIC50 [19]: > 9.00
pIC50 [21]: > 9.00
potency against breast cancer cells relative to CJM 126 [22]: more potent than even the compound CJM 126
pIC50 [23]: 9.00

Compound: CCCCCCCCCCCCCCCCOP(=O)([O-])OCC[N+](C)(C)C [hexadecylphosphocoline]
responsiveness of MT-1 and MT-3 tumors to drug [14]: exquisitively sensitive

Compound: CN(Cc1cnc2nc(N)nc(N)c2n1)c1ccc(C(=O)N[C@@H](CCC(=O)O)C(=O)O)cc1 [methotrexate]
responsiveness of MT-1 and MT-3 tumors to drug [14]: completely unresponsive

Compound: CC[C@]1(O)C[C@H]2CN(CCc3c([nH]c4ccccc34)[C@@](C(=O)OC)(c3cc4c(cc3OC)N(C=O)[C@H]3[C@@](O)(C(=O)OC)[C@H](OC(C)=O)[C@]5(CC)C=CCN6CC[C@]43[C@@H]65)C2)C1 [vincristine]
responsiveness of MT-1 and MT-3 tumors to drug [14]: completely unresponsive
